Experimental data taken from US20180002295A1, “Compositions and Methods for Treating Anxiety and Compulsive Behavior” (University of Iowa Research Foundation, priority 2015, published 2018).
“Also recorded” adds a separate entry of the source.

Tests used:
SAPAP3-deficient mice [1] = test: Spray-induced grooming assay (baseline and spray-induced grooming) in SAPAP3-deficient mice; assay type: in vivo; conditions: compared with wild type
SAPAP3-deficient mice [2] = conditions: reference 4; cited from earlier work
[3] = intracerebroventricular infusion into left lateral ventricle for 7 days by osmotic minipump
[4] = intraperitoneal, 10 mg/kg/d, 10 mg/kg/day

CCOc1ccc2nc(N/C(=N/C(=O)CC)NC(=O)CC)nc(C)c2c1 [P5C6]
basal (baseline) grooming (SAPAP3-deficient mice [1]; [3]): normalized | spray-induced grooming (SAPAP3-deficient mice [1]; [3]): normalized

CNCCC(Oc1ccc(C(F)(F)F)cc1)c1ccccc1 (centres unmarked) [fluoxetine]
basal (baseline) grooming (SAPAP3-deficient mice [1]; [4]): restored to wild type levels; also recorded: normalized | spray-induced grooming (SAPAP3-deficient mice [1]; [4]): restored to wild type levels; also recorded: normalized | compulsive grooming leading to acquisition of facial lesions (SAPAP3-deficient mice [2]): ameliorated
